Data as given in PubChem BioAssay (NCI).
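Method: 48-hour compound exposure of cells in 96-well plates, five concentrations, linear interpolation of endpoints. TGI: concentration producing complete growth inhibition.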

What was measured:
Assay in all cases: growth of human tumour cells (NCI), 48 h
[1] = system: NCI/ADR-RES ovarian
[2] = system: MCF7 breast
[3] = system: HOP-62 NSCLC
[4] = system: SK-OV-3 ovarian
[5] = system: HCC-2998 colon
[6] = system: SNB-19 CNS
[7] = system: MOLT-4 leukemia
[8] = system: MDA-MB-231 breast
[9] = system: CCRF-CEM leukemia
[10] = system: SK-MEL-5 melanoma
[11] = system: UO-31 renal
[12] = system: UACC-62 melanoma
[13] = system: A549 NSCLC
[14] = system: IGROV1 ovarian
[15] = system: CAKI-1 renal
[16] = system: HCT-116 colon
[17] = system: MALME-3M melanoma
[18] = system: SN12C renal
[19] = system: RPMI-8226 leukemia
[20] = system: SW-620 colon
[21] = system: DU-145 prostate
[22] = system: OVCAR-3 ovarian
[23] = system: OVCAR-8 ovarian
[24] = system: COLO 205 colon
[25] = system: PC-3 prostate
[26] = system: HL-60(TB) leukemia
[27] = system: BT-549 breast
[28] = system: SF-539 CNS
[29] = system: HOP-92 NSCLC
[30] = system: NCI-H522 lung
[31] = system: M14 melanoma
[32] = system: MDA-MB-435
[33] = system: NCI-H460 lung
[34] = system: NCI-H23 lung
[35] = system: ACHN renal
[36] = system: SF-295 CNS
[37] = system: UACC-257 melanoma
[38] = system: KM12 colon
[39] = system: NCI-H226 lung
[40] = system: EKVX NSCLC
[41] = system: RXF 393 renal
[42] = system: LOX IMVI melanoma
[43] = system: A498 renal
[44] = system: OVCAR-5 ovarian
[45] = system: SK-MEL-28 melanoma
[46] = system: U251 CNS
[47] = system: SR leukemia
[48] = system: HT29 colon
[49] = system: SK-MEL-2 melanoma
[50] = system: MDA-N
[51] = system: K-562 leukemia
[52] = system: OVCAR-4 ovarian
[53] = system: 786-0 renal
[54] = system: SNB-75 CNS
[55] = system: TK-10 renal
[56] = system: HCT-15 colon
[57] = system: T-47D breast
[58] = system: SF-268 CNS
[59] = system: HS 578T breast

Compound: O=c1c2c(sc3ccccc13)NCN(CCc1ccccc1)C2
- TGI [1]: 99 µM
- TGI [2]: > 100 µM
- TGI [3]: > 100 µM
- TGI [4]: > 100 µM
- TGI [5]: 56.9 µM
- TGI [6]: > 100 µM
- TGI [7]: 80.2 µM
- TGI [8]: 77.5 µM
- TGI [9]: > 100 µM
- TGI [10]: 29 µM
- TGI [11]: > 100 µM
- TGI [12]: > 100 µM
- TGI [13]: > 100 µM
- TGI [14]: > 100 µM
- TGI [15]: > 100 µM
- TGI [16]: > 100 µM
- TGI [17]: > 100 µM
- TGI [18]: > 100 µM
- TGI [19]: 43 µM
- TGI [20]: > 100 µM
- TGI [21]: > 100 µM
- TGI [22]: > 100 µM
- TGI [23]: > 100 µM
- TGI [24]: 37 µM
- TGI [25]: > 100 µM
- TGI [26]: > 100 µM
- TGI [27]: > 100 µM
- TGI [28]: > 100 µM
- TGI [29]: > 100 µM
- TGI [30]: > 100 µM
- TGI [31]: 84.4 µM
- TGI [32]: > 100 µM
- TGI [33]: > 100 µM
- TGI [34]: > 100 µM
- TGI [35]: > 100 µM
- TGI [36]: 43.5 µM
- TGI [37]: > 100 µM
- TGI [38]: > 100 µM
- TGI [39]: > 100 µM
- TGI [40]: > 100 µM
- TGI [41]: > 100 µM
- TGI [42]: > 100 µM
- TGI [43]: > 100 µM
- TGI [44]: > 100 µM
- TGI [45]: > 100 µM
- TGI [46]: > 100 µM
- TGI [47]: > 100 µM
- TGI [48]: 53.8 µM
- TGI [49]: 75.4 µM
- TGI [50]: 59.7 µM
- TGI [51]: 40.8 µM
- TGI [52]: > 100 µM
- TGI [53]: > 100 µM
- TGI [54]: 78.2 µM

Compound: COc1ccc2c(C)cc(N/N=C/c3sccc3C)nc2c1
- TGI [1]: 26.2 µM
- TGI [2]: 26.1 µM
- TGI [3]: 28.4 µM
- TGI [4]: 31.9 µM
- TGI [5]: 25.7 µM
- TGI [6]: 41.6 µM
- TGI [7]: 48.6 µM
- TGI [55]: 43.3 µM
- TGI [8]: 5.9 µM
- TGI [56]: 20.3 µM
- TGI [9]: > 100 µM
- TGI [10]: 18.9 µM
- TGI [11]: 54.8 µM
- TGI [57]: 33.6 µM
- TGI [12]: 34.9 µM
- TGI [13]: 29.4 µM
- TGI [14]: 27.4 µM
- TGI [16]: 16.1 µM
- TGI [17]: 20.8 µM
- TGI [18]: 20.4 µM
- TGI [19]: 26.6 µM
- TGI [20]: 69.4 µM
- TGI [21]: 23.3 µM
- TGI [22]: 10.6 µM
- TGI [23]: 30.3 µM
- TGI [24]: 17.9 µM
- TGI [58]: 85.9 µM
- TGI [25]: 31.9 µM
- TGI [26]: > 100 µM
- TGI [27]: 28.9 µM
- TGI [28]: 27.5 µM
- TGI [59]: 36.7 µM
- TGI [29]: 47.5 µM
- TGI [30]: 21.9 µM
- TGI [31]: 24.1 µM
- TGI [32]: 35.4 µM
- TGI [34]: 33.1 µM
- TGI [35]: > 100 µM
- TGI [36]: 28.4 µM
- TGI [37]: 22.4 µM
- TGI [38]: 21.8 µM
- TGI [39]: 25.9 µM
- TGI [41]: 32 µM
- TGI [42]: 21.5 µM
- TGI [44]: 28.1 µM
- TGI [45]: 35.8 µM
- TGI [46]: 51.9 µM
- TGI [47]: 87.3 µM
- TGI [48]: 12.5 µM
- TGI [49]: 29.8 µM
- TGI [50]: 27.3 µM
- TGI [52]: > 100 µM
- TGI [54]: 26.1 µM

Compound: Cc1cccc2nc3n(c12)C(=O)c1ccccc1-3
- TGI [1]: > 100 µM
- TGI [2]: > 100 µM
- TGI [3]: > 100 µM
- TGI [4]: > 100 µM
- TGI [5]: > 100 µM
- TGI [6]: > 100 µM
- TGI [7]: > 100 µM
- TGI [55]: > 100 µM
- TGI [56]: > 100 µM
- TGI [9]: > 100 µM
- TGI [11]: > 100 µM
- TGI [12]: > 100 µM
- TGI [13]: > 100 µM
- TGI [14]: > 100 µM
- TGI [15]: > 100 µM
- TGI [16]: > 100 µM
- TGI [17]: > 100 µM
- TGI [18]: > 100 µM
- TGI [19]: > 100 µM
- TGI [20]: > 100 µM
- TGI [21]: > 100 µM
- TGI [22]: > 100 µM
- TGI [23]: > 100 µM
- TGI [24]: > 100 µM
- TGI [58]: > 100 µM
- TGI [25]: > 100 µM
- TGI [26]: > 100 µM
- TGI [27]: > 100 µM
- TGI [28]: > 100 µM
- TGI [29]: > 100 µM
- TGI [30]: > 100 µM
- TGI [33]: > 100 µM
- TGI [34]: > 100 µM
- TGI [35]: > 100 µM
- TGI [36]: > 100 µM
- TGI [37]: > 100 µM
- TGI [38]: > 100 µM
- TGI [39]: > 100 µM
- TGI [40]: > 100 µM
- TGI [41]: > 100 µM
- TGI [44]: > 100 µM
- TGI [45]: > 100 µM
- TGI [46]: > 100 µM
- TGI [47]: > 100 µM
- TGI [48]: > 100 µM
- TGI [49]: > 100 µM
- TGI [50]: > 100 µM
- TGI [51]: > 100 µM
- TGI [52]: > 100 µM
- TGI [53]: > 100 µM
- TGI [54]: > 100 µM

Compound: COC(=O)C1=C(C(=O)OC)SC(=C2c3ccsc3-c3sccc32)S1
- TGI [1]: > 100 µM
- TGI [2]: > 100 µM
- TGI [3]: 55.1 µM
- TGI [4]: 49.3 µM
- TGI [5]: > 100 µM
- TGI [6]: > 100 µM
- TGI [7]: > 100 µM
- TGI [55]: 57.8 µM
- TGI [8]: > 100 µM
- TGI [56]: > 100 µM
- TGI [9]: > 100 µM
- TGI [10]: > 100 µM
- TGI [11]: > 100 µM
- TGI [12]: > 100 µM
- TGI [13]: > 100 µM
- TGI [14]: > 100 µM
- TGI [15]: > 100 µM
- TGI [16]: > 100 µM
- TGI [17]: > 100 µM
- TGI [18]: > 100 µM
- TGI [19]: > 100 µM
- TGI [20]: > 100 µM
- TGI [21]: > 100 µM
- TGI [22]: > 100 µM
- TGI [23]: > 100 µM
- TGI [24]: > 100 µM
- TGI [58]: 57.3 µM
- TGI [25]: > 100 µM
- TGI [26]: 58.7 µM
- TGI [27]: > 100 µM
- TGI [28]: > 100 µM
- TGI [59]: 52 µM
- TGI [31]: > 100 µM
- TGI [32]: > 100 µM
- TGI [33]: > 100 µM
- TGI [34]: 56.2 µM
- TGI [35]: > 100 µM
- TGI [36]: 53.5 µM
- TGI [37]: > 100 µM
- TGI [38]: > 100 µM
- TGI [39]: > 100 µM
- TGI [40]: > 100 µM
- TGI [41]: 41.6 µM
- TGI [42]: > 100 µM
- TGI [43]: 71.4 µM
- TGI [44]: > 100 µM
- TGI [45]: > 100 µM
- TGI [46]: 98.5 µM
- TGI [47]: > 100 µM
- TGI [48]: > 100 µM
- TGI [50]: > 100 µM
- TGI [51]: > 100 µM
- TGI [53]: 56.8 µM
- TGI [54]: 35.6 µM
